Source: patent US20240059703A1 (AMGEN INC., priority 2021, published 2024)

How the values were obtained:
[1] = target: KRAS G12C (Homo sapiens (Human), UniProt P01116, C118A/G12C); test: 2 h coupled exchange assay; format: biochemical; conditions: Avg 2 h Coupled exchange IC50, 2 h compound pre-incubation, SOS-mediated nucleotide exchange
Protocol: The term “2 h coupled exchange assay” or “20 h coupled exchange assay” as used herein refers to the assay described in the Section entitled “BIOLOGICAL EVALUATION.”

[2] = system: A549 (human lung carcinoma) cells; test: Cell Viability Assay (CellTiter-Glo), A549; format: cell-based; conditions: Homo sapiens, A549, 72 h
Procedure, shortened: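 Seeding at 1.67E+04 cells/mL is followed by overnight attachment at 37° C., 5% CO2. Serially diluted compound is added for 72 h. Viability is read by CellTiter-Glo luminescence, scaled to DMSO and fitted (4-parameter logistic) to give IC50.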

[3] = system: MIA PaCa-2 (human pancreatic carcinoma) cells; test: Cell Viability Assay (CellTiter-Glo), MIA PaCa-2; format: cell-based; conditions: Homo sapiens, MIA PaCa-2, 72 h
Protocol: Serially-diluted compound or DMSO was added to the cells, and plates were incubated at 37° C., 5% CO2 for 72 h. Cell viability was measured using a CellTiter-Glo® Luminescent Cell Viability Assay kit (Promega) according to the manufacturer's protocol. The luminescence signal of treated samples was normalized to DMSO control, and data were analyzed using a 4-parameter logistic model to calculate IC50 values.

KRAS G12C, sequence (P01116 other isoform, or with tags, fused parts or gaps G12C/C118A): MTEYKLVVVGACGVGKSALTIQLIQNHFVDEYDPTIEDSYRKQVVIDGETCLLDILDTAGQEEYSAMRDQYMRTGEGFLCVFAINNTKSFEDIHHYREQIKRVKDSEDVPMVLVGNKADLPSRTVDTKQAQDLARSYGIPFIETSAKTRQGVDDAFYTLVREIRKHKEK

Row | IC50 [1] | IC50 [2] | IC50 [3] | SMILES
1 | 42 nM | 3100 nM | 430 nM | C=CC(=O)N1CC2(CCN(c3nc4c(c(-c5c(C)ccc6[nH]ncc56)c3C#N)CCC(C)C4)C2)C1 (stereo not drawn) [Example 2-1, 2-(2-acryloyl-2,6-diazaspiro[3.4]octan-6-yl)-7-methyl-4-(5-methyl-1H-indazol-4-yl)-5,6,7,8-tetrahydroquinoline-3-carbonitrile]
2 | 694 nM | 6250 nM | 1730 nM | C=CC(=O)N1CC2(CCN(c3nc4ccccc4c(-c4c(C)ccc5cn[nH]c45)c3C#N)C2)C1 [Example 2-2, 4-(6-methyl-1H-indazol-7-yl)-2-(2-(2-propenoyl)-2,6-diazaspiro[3.4]octan-6-yl)-3-quinolinecarbonitrile]
3 | 537 nM | 3120 nM | 693 nM | C=CC(=O)N1CC2(CCN(c3nc4ccccc4c(-c4cccc5sc(N)nc45)c3C#N)C2)C1 [Example 2-3, 4-(2-amino-1,3-benzothiazol-4-yl)-2-(2-(2-propenoyl)-2,6-diazaspiro[3.4]octan-6-yl)-3-quinolinecarbonitrile]
4 | 173 nM | 6250 nM | 2060 nM | C=CC(=O)N1CC2(CCN(c3nc4ccccc4c(-c4cc(O)cc5ccccc45)c3C#N)C2)C1 [Example 2-4, 4-(3-hydroxy-1-naphthalenyl)-2-(2-(2-propenoyl)-2,6-diazaspiro[3.4]octan-6-yl)-3-quinolinecarbonitrile]
5 | 42 nM | 6250 nM | 943 nM | C=CC(=O)N1CC2(C1)CN(c1nc3c(c(-c4c(C)ccc5[nH]ncc45)c1C#N)CCC(C)C3)CC2(F)F (stereo not drawn) [Example 2-5, 2-(8,8-difluoro-2-(2-propenoyl)-2,6-diazaspiro[3.4]octan-6-yl)-7-methyl-4-(5-methyl-1H-indazol-4-yl)-5,6,7,8-tetrahydro-3-quinolinecarbonitrile]
6 | 56 nM | 6250 nM | 237 nM | C=CC(=O)N1CC2(CCN(c3nc4ccccc4c(-c4c(C)c(C)cc5[nH]ncc45)c3C#N)C2)C1 [Example 2-6, 4-(5,6-dimethyl-1H-indazol-4-yl)-2-(2-(2-propenoyl)-2,6-diazaspiro[3.4]octan-6-yl)-3-quinolinecarbonitrile]
7 | 59 nM | 3640 nM | 554 nM | C=CC(=O)N1CC2(CCN(c3nc4c(c(-c5c(C)ccc6[nH]ncc56)c3C#N)CCCC4)C2)C1 [Example 2-8, 4-(5-methyl-1H-indazol-4-yl)-2-(2-(2-propenoyl)-2,6-diazaspiro[3.4]octan-6-yl)-5,6,7,8-tetrahydro-3-quinolinecarbonitrile]
8 | 410 nM | 6120 nM | 2970 nM | C=CC(=O)N1CC2(CCN(c3nc4c(c(-c5cc(O)ccc5F)c3C#N)CCCC4)C2)C1 [Example 2-9, 4-(2-fluoro-5-hydroxyphenyl)-2-(2-(2-propenoyl)-2,6-diazaspiro[3.4]octan-6-yl)-5,6,7,8-tetrahydro-3-quinolinecarbonitrile]
9 | 44 nM | > 5000 nM | 452 nM | C=CC(=O)N1CC2(CCN(c3nc4c(c(-c5c(C)ccc6[nH]ncc56)c3C#N)CCCCC4)C2)C1 [Example 2-10, 4-(5-methyl-1H-indazol-4-yl)-2-(2-(2-propenoyl)-2,6-diazaspiro[3.4]octan-6-yl)-6,7,8,9-tetrahydro-5H-cyclohepta[b]pyridine-3-carbonitrile]
10 | 150 nM | > 5000 nM | 403 nM | C=CC(=O)N1CC2(CCN(c3nc4c(c(-c5cccc6cc(O)ccc56)c3C)CCC(C)(C)C4)C2)C1 [Example 2-13, 1-(6-(4-(6-hydroxy-1-naphthalenyl)-3,7,7-trimethyl-5,6,7,8-tetrahydro-2-quinolinyl)-2,6-diazaspiro[3.4]octan-2-yl)-2-propen-1-one]
11 | 104 nM | > 5000 nM | 392 nM | C=CC(=O)N1CC2(CCN(c3nc4c(c(-c5c(C)ccc6cnn(C)c56)c3C)CCC(C)(C)C4)C2)C1 [Example 2-19, 1-(6-(4-(1,6-dimethyl-1H-indazol-7-yl)-3,7,7-trimethyl-5,6,7,8-tetrahydro-2-quinolinyl)-2,6-diazaspiro[3,4]octan-2-yl)-2-propen-1-one]
12 | 102 nM | > 5000 nM | 214 nM | C=CC(=O)N1CC2(CCN(c3nc4c(c(-c5cc(O)cc6ccccc56)c3C)CCC(C)(C)C4)C2)C1 [Example 2-27, 1-(6-(4-(3-hydroxy-1-naphthalenyl)-3,7,7-trimethyl-5,6,7,8-tetrahydro-2-quinolinyl)-2,6-diazaspiro[3,4]octan-2-yl)-2-propen-1-one]
13 | 67 nM | > 5000 nM | 187 nM | C=CC(=O)N1CC2(CCN(c3nc4c(c(-c5c(C)ccc6[nH]ncc56)c3C)CCC(C)(C)C4)C2)C1 [Example 2-28, 1-(6-(3,7,7-trimethyl-4-(5-methyl-1H-indazol-4-yl)-5,6,7,8-tetrahydro-2-quinolinyl)-2,6-diazaspiro[3.4]octan-2-yl)-2-propen-1-one]

The next lines start with the molecule.

Row | SMILES | IC50 [1] | IC50 [2] | IC50 [3]
14 | C=CC(=O)N1CC2(CCN(c3nc(-c4c(C)ccc5[nH]ncc45)c4ccc(OC)cc4n3)C2)C1 [Example 1-41, 1-(6-(7-methoxy-4-(5-methyl-1H-indazol-4-yl)-2-quinazolinyl)-2,6-diazaspiro[3.4]octan-2-yl)-2-propen-1-one] | 882 nM | > 5000 nM | > 5000 nM
15 | C=CC(=O)N1CC2(CCN(c3nc4c(c(-c5cccc6cccc(C)c56)n3)OCCC4)C2)C1 [Example 1-42, 1-(6-(4-(8-methyl-1-naphthalenyl)-7,8-dihydro-6H-pyrano[3,2-d]pyrimidin-2-yl)-2,6-diazaspiro[3,4]octan-2-yl)-2-propen-1-one] | 456 nM | 22800 nM | 5920 nM
16 | C=CC(=O)N1CC2(CCN(c3nc4c(F)cccc4c(-c4c(C)ccc5[nH]ncc45)c3C#N)CC2(F)F)C1 [Example 1-43, 2-(5,5-difluoro-2-(2-propenoyl)-2,7-diazaspiro[3.5]nonan-7-yl)-8-fluoro-4-(5-methyl-1H-indazol-4-yl)-3-quinolinecarbonitrile] | 858 nM | 6250 nM | 2160 nM
17 | C=CC(=O)N1CC2(CCN(c3nc4c(F)cccc4c(-c4c(C)ccc5[nH]ncc45)c3C#N)C2=O)C1 [Example 1-44, 8-fluoro-4-(5-methyl-1H-indazol-4-yl)-2-(5-oxo-2-(2-propenoyl)-2,6-diazaspiro[3,4]octan-6-yl)-3-quinolinecarbonitrile] | 6830 nM | 12500 nM | 6400 nM
18 | C=CC(=O)N1CC2(CCN(c3nc4cc(OC)ccc4c(-c4c(C)ccc5[nH]ncc45)c3C#N)C2)C1 [Example 1-45, 7-methoxy-4-(5-methyl-1H-indazol-4-yl)-2-(2-(2-propenoyl)-2,6-diazaspiro[3.4]octan-6-yl)-3-quinolinecarbonitrile] | 32 nM | > 5000 nM | 332 nM
19 | Cc1ccc2[nH]ncc2c1-c1c(C#N)c(N2CCC3(CN(C(=O)/C=C/CN(C)C)C3)C2)nc2c(F)cccc12 [Example 1-46, 2-(2-((2E)-4-(dimethylamino)-2-butenoyl)-2,6-diazaspiro[3.4]octan-6-yl)-8-fluoro-4-(5-methyl-1H-indazol-4-yl)-3-quinolinecarbonitrile] | 1530 nM | 6250 nM | 2020 nM
20 | C=CC(=O)N1CC2(CCN(c3cn4ncnc4c(-c4c(C)ccc5[nH]ncc45)c3C#N)C2)C1 [Example 1-48, 8-(5-methyl-1H-indazol-4-yl)-6-(2-(2-propenoyl)-2,6-diazaspiro[3.4]octan-6-yl)[1,2,4]triazolo[1,5-a]pyridine-7-carbonitrile] | 554 nM | > 5000 nM | > 5000 nM
21 | C=CC(=O)N1CC2(CCN(c3nc4c(F)cccc4c(-c4c(C)ccc5[nH]ncc45)c3C#N)C2CF)C1 (stereo not drawn) [Example 1-49, 8-fluoro-2-(5-(fluoromethyl)-2-(2-propenoyl)-2,6-diazaspiro[3.4]octan-6-yl)-4-(5-methyl-1H-indazol-4-yl)-3-quinolinecarbonitrile] | 124 nM | 13400 nM | 24600 nM
22 | C=CC(=O)N1CC2(CCN(c3nc4c(ccn4C)c(-c4c(C)ccc5[nH]ncc45)c3C#N)C2)C1 [Example 1-50, 1-methyl-4-(5-methyl-1H-indazol-4-yl)-6-(2-(2-propenoyl)-2,6-diazaspiro[3.4]octan-6-yl)-1H-pyrrolo[2,3-b]pyridine-5-carbonitrile] | 498 nM | > 5000 nM | > 5000 nM
23 | C=CC(=O)N1CC2(CCN(c3nc4c(N5CCCC5)ccn4c(-c4c(C)ccc5[nH]ncc45)c3C#N)C2)C1 [Example 1-52] | 244 nM | 39000 nM | 1890 nM
24 | C=CC(=O)N1CC2(CCN(c3nc4c(N5CCN(C)CC5)ccn4c(-c4c(C)ccc5[nH]ncc45)c3C#N)C2)C1 [Example 1-53] | 99 nM | > 50000 nM | 13400 nM
25 | C=CC(=O)N1CC2(CCN(c3nc4cc(-c5nccs5)cn4c(-c4c(C)ccc5[nH]ncc45)c3C#N)C2)C1 [Example 1-54] | 122 nM | > 5000 nM | 976 nM
